Source: PubChem BioAssay (NCI)
“And” between values parts separate entries of the source, which are not always exact repeats. Equal entries are not always repeated.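 A five-concentration, 48-hour dose response in 96-well plates underlies each endpoint, interpolated linearly between surrounding concentrations. GI50 is the concentration that inhibits growth by half. TGI: concentration producing complete growth inhibition.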

Experiments:
Experiment in all cases: inhibition of tumour cell growth, NCI panel, 48 h
[1] = test system: IGROV1 ovarian
[2] = test system: RXF 393 renal
[3] = test system: NCI-H226 lung
[4] = test system: OVCAR-8 ovarian
[5] = test system: SK-MEL-5 melanoma
[6] = test system: EKVX NSCLC
[7] = test system: HCT-15 colon
[8] = test system: PC-3 prostate
[9] = test system: NCI-H23 lung
[10] = test system: CCRF-CEM leukemia

Row | SMILES | GI50 [1] [µM] | TGI [1] | GI50 [2] | TGI [2] | GI50 [3] [µM] | TGI [3] [µM] | GI50 [4] [µM] | TGI [4] | GI50 [5] [µM] | TGI [5] | GI50 [6] [µM] | TGI [6] | GI50 [7] | TGI [7] | GI50 [8] [µM] | TGI [8] | GI50 [9] [µM] | TGI [9] | GI50 [10] [µM] | TGI [10] [µM]
1 | CCC1CN2C(=N1)c1ccccc1-c1cc(Cl)ccc12 (centres undefined) | 2.29 | 15.1 µM | 3.5 µM | 15 µM | 1.81 | 4.86 | 3.32 | 18.4 µM | 2.03 | 4.69 µM | 4.74 | 26.6 µM | 2.86 µM | 11.5 µM | 2.82 | 11.8 µM | 3.78 | 15.2 µM | 2.02 | 4.79
2 | COc1cccc(-n2nc(C)c3c(N/N=C(\C)c4ccncc4)ncnc32)c1 | > 25 | > 25 µM | 8.15 µM | > 25 µM | > 8.39 | > 25 | > 25 | > 25 µM | 3.02 | > 25 µM | > 25 | > 25 µM | > 25 µM | > 25 µM | > 25 | > 25 µM | > 25 | > 25 µM | > 25 | > 25
3 | O=CN/C=C/c1cccc(O)c1 |  | > 88.2 µM |  | 85.1 µM |  | 89.2 |  | > 96.1 µM |  | > 75.6 µM |  | > 96.6 µM |  | > 100 µM |  | > 100 µM |  | 72.4 µM |  | > 100
4 | Nc1nc(N)c2nc(CNc3ccc(C(=O)NC(CC(=O)O)C(=O)O)cc3)cnc2n1 (centres undefined) | 0.631 | > 100 µM | > 72.4 µM | > 100 µM | 30.6 | > 100 | 0.589 | > 100 µM | 3.33 | > 100 µM | 1.57 | > 100 µM | 0.526 µM | > 100 µM | 0.319 | > 75.7 µM | 2.38 | > 100 µM | 0.422 | > 100
5 | O=C(Nc1ccncc1)C(=O)c1cn(Cc2ccc(Cl)cc2)c2ccccc12 | 0.141 | > 100 µM | 0.0302 µM |  | 0.276 | > 100 | 0.0549 | > 100 µM | 0.0309 | > 35 µM | 0.261 | > 100 µM | 0.0408 µM | > 100 µM | 0.0419 | > 100 µM | 0.0548 | > 100 µM | 0.0331 | > 100
6 | CCCCC[C@H]1C/C=C2/C(=O)C=C[C@@H]2C/C=C\CCCC(=O)O[C@@H](CCCCC)C/C=C2/C(=O)C=C[C@@H]2C/C=C\CCCC(=O)O1 | 0.123 | 0.596 µM | 0.193 µM | 0.526 µM | 0.746 | 1.64 | 0.112 | 2.7 µM | 0.414 | 0.791 µM | 0.373 | 1.03 µM | 0.428 µM | 1.01 µM | 0.285 | 0.806 µM | 0.289 | 0.822 µM | 0.082 | 1.42
7 | COC1/C=C/C(C)C(C(C)C(OC)C(C)CCC(=O)C(C)C(C/C=C/N(C)C=O)OC)OC(=O)/C=C/C=C(\C)CC(OC)CC2=CC(=O)O[C@H](C2)C(C)C(OC)CC(OC)/C=C/C(C)C(OC)C1 (some centres undefined) | 0.0159 | 0.053 µM and 0.0341 µM | 0.0378 µM | 0.141 µM and 0.0376 µM | 0.0215 | 0.129 | 0.0227 | 0.0768 µM and 0.196 µM | 0.113 |  | 0.123 | 0.869 µM and 0.362 µM | 0.0142 µM | 0.27 µM and 0.0329 µM |  | 0.0387 µM and 0.0417 µM | 0.0919 | 0.499 µM and 0.171 µM | 0.0218 | 0.0367
8 | c1csc(-c2cn3nc(-c4c[nH]c5ccccc45)sc3n2)c1 | 1.79 | > 100 µM | 2.05 µM | 50 µM | 9.94 | > 100 | 2.72 | > 100 µM | 0.714 | 15.1 µM | 1.99 | > 100 µM | 0.488 µM | 15.6 µM | 2.07 | > 100 µM | 4.47 | > 100 µM | 2.19 | 27.2
9 | C=CCC1(O)c2ccccc2C(=O)c2c(NCCN(CC(=O)OCC)CC(=O)OCC)cccc21 (centres undefined) | > 100 | > 100 µM | > 100 µM | > 100 µM | > 100 | > 100 | > 100 | > 100 µM | > 100 | > 100 µM | > 100 | > 100 µM | 69.5 µM | > 100 µM | 97.1 | > 100 µM | > 100 | > 100 µM | > 100 | > 100
10 | O=C(Cn1c(=O)c(-c2ccccc2)nc2ccccc21)Nc1ccc(F)cc1 | 89.6 | > 100 µM | 35.5 µM | > 100 µM | > 100 | > 100 | 39.6 | > 100 µM | 7.38 | > 100 µM | 87.1 | > 100 µM | > 100 µM | > 100 µM | 39.9 | > 100 µM | > 100 | > 100 µM | 6.46 | > 100
11 | O=C1C(N2CC2)=C(N2CC2)C(=O)C(N2CC2)=C1N1CC1 | 0.312 | 2.38 µM | 0.218 µM | 1.01 µM | 0.157 | 0.714 | 0.344 | 6.99 µM | 0.144 | 0.359 µM | 1.7 | 6.88 µM | 0.15 µM | 0.901 µM | 0.863 | 21.1 µM | < 0.0233 | 0.245 µM | 1.82 | > 100
12 | COc1ccc(/C=C/C(=O)c2ccc(O)c(CN3CCN(c4cc5c(cc4F)c(=O)c(C(=O)O)cn5C4CC4)CC3)c2)cc1 | 1.27 | > 100 µM | 1.42 µM | 60.3 µM | 3.75 | > 100 | 0.644 | > 100 µM | 1.57 | > 100 µM | 8.35 | > 100 µM | 2.22 µM | > 100 µM | 1.39 | > 100 µM | 2.33 | > 100 µM | 0.805 | > 100
13 | C[C@]12CCc3sc(NCCc4ccccc4)nc3C1=CC[C@@H]1[C@@H]2CC[C@]2(C)C(=O)CC[C@@H]12 | 2.6 | 6.18 µM | 1.73 µM | 4.49 µM | 2.42 | 6.57 | 2.77 | > 100 µM | 4.57 | 52.7 µM | 90.1 | > 100 µM | 1.57 µM | 4.49 µM | 3.35 | > 100 µM | 5.03 | > 100 µM | 2.63 | 40.4
14 | COc1cc(NC(C)CCCN)c2ncccc2c1 (centres undefined) |  | > 100 µM | 17.1 µM and 37.4 µM | > 79.6 µM and 100 µM |  | > 100 |  | > 100 µM |  | 32.3 µM and 57.3 µM |  | > 100 µM | 41.9 µM and 98.4 µM | > 100 µM |  | > 100 µM |  | > 100 µM |  | > 100
